Assay results reported in ChEMBL document CHEMBL1201862, “PubChem BioAssay data set” (2004).
Calls of active or inactive are those of the source.

Experiments:
[1] = target: T1, Tyrosine-protein phosphatase non-receptor type 7 (Homo sapiens, UniProt P35236); assay type: functional
T1 sequence (P35236 whole entry): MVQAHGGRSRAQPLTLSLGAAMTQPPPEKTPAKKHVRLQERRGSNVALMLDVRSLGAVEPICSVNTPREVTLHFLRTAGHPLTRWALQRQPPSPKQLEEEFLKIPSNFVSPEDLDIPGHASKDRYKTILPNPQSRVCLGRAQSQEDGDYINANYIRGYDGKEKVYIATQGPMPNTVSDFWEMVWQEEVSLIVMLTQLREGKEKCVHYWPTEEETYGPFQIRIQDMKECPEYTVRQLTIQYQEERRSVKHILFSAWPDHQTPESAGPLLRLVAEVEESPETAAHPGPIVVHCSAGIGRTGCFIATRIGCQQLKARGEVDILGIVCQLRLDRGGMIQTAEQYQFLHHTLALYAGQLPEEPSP

[2] = target: Glyceraldehyde-3-phosphate dehydrogenase (Homo sapiens, UniProt P04406)
Glyceraldehyde-3-phosphate dehydrogenase, sequence (P04406 whole entry): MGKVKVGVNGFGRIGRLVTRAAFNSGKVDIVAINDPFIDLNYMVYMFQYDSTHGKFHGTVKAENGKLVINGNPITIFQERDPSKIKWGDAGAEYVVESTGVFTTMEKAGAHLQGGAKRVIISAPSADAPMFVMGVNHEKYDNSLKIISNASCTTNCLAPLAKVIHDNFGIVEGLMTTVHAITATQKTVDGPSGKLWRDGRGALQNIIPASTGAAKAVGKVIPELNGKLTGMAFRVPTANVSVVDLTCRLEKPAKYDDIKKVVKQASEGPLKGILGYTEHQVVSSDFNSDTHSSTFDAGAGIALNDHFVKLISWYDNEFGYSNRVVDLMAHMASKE

[3] = target: T2, Dual specificity protein phosphatase 6 (Rattus norvegicus, UniProt Q64346)
T2 sequence (Q64346 whole entry): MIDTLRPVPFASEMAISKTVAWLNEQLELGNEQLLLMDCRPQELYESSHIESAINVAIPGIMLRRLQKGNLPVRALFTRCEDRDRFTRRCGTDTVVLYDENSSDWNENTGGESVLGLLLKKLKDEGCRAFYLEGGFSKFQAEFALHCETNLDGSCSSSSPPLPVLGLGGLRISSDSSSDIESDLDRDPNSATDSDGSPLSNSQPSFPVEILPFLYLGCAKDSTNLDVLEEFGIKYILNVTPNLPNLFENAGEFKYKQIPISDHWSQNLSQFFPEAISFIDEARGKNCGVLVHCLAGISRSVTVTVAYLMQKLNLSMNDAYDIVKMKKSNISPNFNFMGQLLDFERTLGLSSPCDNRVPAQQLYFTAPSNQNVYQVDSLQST

[4] = target: T2, Dual specificity protein phosphatase 6; assay type: functional
[5] = target: Dual specificity protein phosphatase 3 (Homo sapiens, UniProt P51452); test: inhibition constants for human DUSP3 – biochemical, colorimetric, SAR follow-up (AID 2004)
Dual specificity protein phosphatase 3, sequence (P51452 whole entry): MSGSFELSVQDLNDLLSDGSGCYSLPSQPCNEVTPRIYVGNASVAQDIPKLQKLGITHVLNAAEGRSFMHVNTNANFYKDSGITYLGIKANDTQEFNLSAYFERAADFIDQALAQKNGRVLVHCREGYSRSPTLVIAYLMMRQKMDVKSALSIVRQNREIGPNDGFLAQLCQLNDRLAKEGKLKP

[6] = target: Neurotensin receptor type 1 (Homo sapiens, UniProt P30989); assay type: functional;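 also: Image-based confirmatory dose-response assay measuring agonist activity at NTR1; NTR1-expressing U2OS osteosarcoma cells imaged for beta-arrestin GFP spot formation; agonist potency where compounds increase beta-arrestin recruitment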
Neurotensin receptor type 1, sequence (P30989 whole entry): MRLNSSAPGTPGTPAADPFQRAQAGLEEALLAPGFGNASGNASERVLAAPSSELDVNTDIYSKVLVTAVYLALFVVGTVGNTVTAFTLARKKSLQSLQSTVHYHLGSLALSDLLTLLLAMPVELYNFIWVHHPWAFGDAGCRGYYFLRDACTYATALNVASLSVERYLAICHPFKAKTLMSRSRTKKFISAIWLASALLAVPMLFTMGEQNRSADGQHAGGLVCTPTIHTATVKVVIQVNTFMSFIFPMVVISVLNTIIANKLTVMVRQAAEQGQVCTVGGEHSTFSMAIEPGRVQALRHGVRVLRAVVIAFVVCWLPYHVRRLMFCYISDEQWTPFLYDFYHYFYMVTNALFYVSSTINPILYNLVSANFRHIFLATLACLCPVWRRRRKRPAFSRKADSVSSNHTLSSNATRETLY

[7] = target: T3, Heat shock factor protein 1 (Mus musculus, UniProt P38532); test: enhancement of HSF1-driven luciferase signal – cell-based, NIH3T3, luminescence, dose retest, confirmation (AID 435004); assay type: functional;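 also: stress induced by proteasome inhibitor MG132 added 30 min after compound; luciferase reporter driven by HSF1 response element in NIH3T3 cells; actives raise luminescence as potentiators of the MG132 stress response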
T3 sequence (P38532 whole entry): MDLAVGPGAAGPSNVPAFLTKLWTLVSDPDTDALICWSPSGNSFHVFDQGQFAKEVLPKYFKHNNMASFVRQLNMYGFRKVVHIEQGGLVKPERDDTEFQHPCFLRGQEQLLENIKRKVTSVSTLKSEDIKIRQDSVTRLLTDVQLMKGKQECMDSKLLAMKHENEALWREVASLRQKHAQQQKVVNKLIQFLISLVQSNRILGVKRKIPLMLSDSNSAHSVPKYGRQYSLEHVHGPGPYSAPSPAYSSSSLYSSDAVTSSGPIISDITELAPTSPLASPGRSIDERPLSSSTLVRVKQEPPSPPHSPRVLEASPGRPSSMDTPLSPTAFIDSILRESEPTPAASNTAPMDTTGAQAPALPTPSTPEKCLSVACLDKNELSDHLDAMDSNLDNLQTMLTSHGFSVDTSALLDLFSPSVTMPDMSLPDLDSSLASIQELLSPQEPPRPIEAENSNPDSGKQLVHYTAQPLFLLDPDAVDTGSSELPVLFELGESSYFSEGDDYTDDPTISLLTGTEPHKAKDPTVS

Cytochrome P450 3A4 = Cytochrome P450 3A4 (Homo sapiens, UniProt P08684);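 also: CYP3A4 tested as one member of a cytochrome P450 panel screen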
Cytochrome P450 3A4, sequence (P08684 whole entry): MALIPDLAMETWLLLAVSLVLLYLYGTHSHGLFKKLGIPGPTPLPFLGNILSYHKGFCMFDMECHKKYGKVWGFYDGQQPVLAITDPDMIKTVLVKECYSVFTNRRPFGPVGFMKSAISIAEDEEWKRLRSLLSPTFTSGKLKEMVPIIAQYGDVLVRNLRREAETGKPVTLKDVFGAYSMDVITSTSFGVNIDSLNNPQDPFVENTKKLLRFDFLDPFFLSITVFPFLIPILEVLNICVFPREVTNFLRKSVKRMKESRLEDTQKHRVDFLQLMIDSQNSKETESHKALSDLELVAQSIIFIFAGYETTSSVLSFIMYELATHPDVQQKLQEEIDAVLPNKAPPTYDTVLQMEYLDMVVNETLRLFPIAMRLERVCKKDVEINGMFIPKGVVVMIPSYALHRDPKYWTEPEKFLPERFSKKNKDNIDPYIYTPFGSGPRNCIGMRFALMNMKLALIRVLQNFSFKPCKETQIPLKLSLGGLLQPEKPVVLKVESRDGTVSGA

Estrogen receptor beta = Estrogen receptor beta (Homo sapiens, UniProt Q92731); test: blockers of SRC-3 recruitment to ERβ – biochemical, ELISA, streptavidin-HRP readout, orthogonal assay, confirmation (AID 1060)
Estrogen receptor beta, sequence (Q92731 whole entry): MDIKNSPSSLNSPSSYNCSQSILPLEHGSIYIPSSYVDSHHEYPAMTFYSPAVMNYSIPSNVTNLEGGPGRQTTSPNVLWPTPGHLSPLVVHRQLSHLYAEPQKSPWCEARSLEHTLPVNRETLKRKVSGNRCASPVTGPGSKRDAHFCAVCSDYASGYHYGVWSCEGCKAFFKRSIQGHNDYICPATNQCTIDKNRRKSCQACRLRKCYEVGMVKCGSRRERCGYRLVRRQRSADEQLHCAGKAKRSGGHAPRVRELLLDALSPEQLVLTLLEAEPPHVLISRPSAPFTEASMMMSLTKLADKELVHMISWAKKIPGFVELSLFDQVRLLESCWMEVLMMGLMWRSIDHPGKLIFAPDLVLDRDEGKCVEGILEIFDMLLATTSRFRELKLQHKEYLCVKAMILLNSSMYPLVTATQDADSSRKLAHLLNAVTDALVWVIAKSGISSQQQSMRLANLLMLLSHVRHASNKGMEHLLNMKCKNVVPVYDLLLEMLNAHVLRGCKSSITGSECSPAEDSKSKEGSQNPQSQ

Ephrin type-A receptor 4 = Ephrin type-A receptor 4 (Mus musculus, UniProt Q03137); test: EphA4 ligand-binding antagonists – biochemical, colorimetric, mouse EphA4, primary screen (AID 689); assay type: functional
Ephrin type-A receptor 4, sequence (Q03137 whole entry): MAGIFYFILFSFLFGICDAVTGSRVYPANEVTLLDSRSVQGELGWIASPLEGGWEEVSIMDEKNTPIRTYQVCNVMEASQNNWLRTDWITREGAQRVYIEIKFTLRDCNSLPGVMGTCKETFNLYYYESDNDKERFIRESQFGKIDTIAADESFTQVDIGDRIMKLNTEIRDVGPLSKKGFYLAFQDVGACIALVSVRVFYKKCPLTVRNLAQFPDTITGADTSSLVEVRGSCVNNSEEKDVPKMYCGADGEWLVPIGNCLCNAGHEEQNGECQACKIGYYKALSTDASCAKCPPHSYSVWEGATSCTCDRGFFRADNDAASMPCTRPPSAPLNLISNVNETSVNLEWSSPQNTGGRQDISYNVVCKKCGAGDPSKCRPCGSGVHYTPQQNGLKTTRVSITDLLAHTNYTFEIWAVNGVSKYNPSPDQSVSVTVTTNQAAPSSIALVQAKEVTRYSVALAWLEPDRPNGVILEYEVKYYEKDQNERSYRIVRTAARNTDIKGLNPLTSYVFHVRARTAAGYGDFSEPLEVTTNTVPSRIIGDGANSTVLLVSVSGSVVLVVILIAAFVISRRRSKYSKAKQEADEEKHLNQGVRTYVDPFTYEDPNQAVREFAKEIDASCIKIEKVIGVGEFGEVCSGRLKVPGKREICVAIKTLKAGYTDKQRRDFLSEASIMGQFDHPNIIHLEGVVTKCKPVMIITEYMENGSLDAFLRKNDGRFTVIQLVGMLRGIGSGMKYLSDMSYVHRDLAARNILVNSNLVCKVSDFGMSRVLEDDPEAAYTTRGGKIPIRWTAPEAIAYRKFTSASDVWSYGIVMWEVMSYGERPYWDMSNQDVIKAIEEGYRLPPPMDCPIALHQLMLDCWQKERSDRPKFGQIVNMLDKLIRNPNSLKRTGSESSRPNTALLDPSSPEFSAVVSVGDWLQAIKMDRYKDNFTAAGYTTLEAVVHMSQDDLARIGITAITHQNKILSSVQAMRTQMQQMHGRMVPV

[8] = target: Induced myeloid leukemia cell differentiation protein Mcl-1 (Homo sapiens, UniProt Q07820); assay type: functional
Induced myeloid leukemia cell differentiation protein Mcl-1, sequence (Q07820 whole entry): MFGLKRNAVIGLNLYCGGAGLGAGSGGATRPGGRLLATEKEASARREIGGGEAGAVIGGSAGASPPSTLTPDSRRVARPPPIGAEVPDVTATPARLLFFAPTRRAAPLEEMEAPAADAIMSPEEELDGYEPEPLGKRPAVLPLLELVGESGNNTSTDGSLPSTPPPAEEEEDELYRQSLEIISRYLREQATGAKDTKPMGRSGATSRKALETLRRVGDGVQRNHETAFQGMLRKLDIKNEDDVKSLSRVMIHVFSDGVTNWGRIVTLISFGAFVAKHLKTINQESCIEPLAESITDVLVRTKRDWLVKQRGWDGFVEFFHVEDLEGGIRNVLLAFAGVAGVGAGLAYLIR

[9] = target: T1, Tyrosine-protein phosphatase non-receptor type 7; test: redox-active compounds inhibiting HePTP phosphatase – biochemical, fluorescence, mechanism study (AID 2068); assay type: functional
Genome polyprotein = Genome polyprotein (dengue virus type 2, UniProt P29990); test: flavivirus cap methylation enzyme inhibition – biochemical, confirmation dose response, primary screen (AID 588689); assay type: functional
HEK293 [10] = test: inhibition of NOD1-driven NF-kB reporter – cell-based, luminescence, uHTS, primary screen (AID 1578); assay type: functional; conditions: Homo sapiens
[11] = test system: Streptococcus sp. 'group A'; test: Streptococcus pyogenes SK(-)GAS viability under kanamycin – luminescence, BacTiterGlo, confirmation, counter-screen for streptokinase expression inhibitor project, dose response (AID 1900); assay type: functional, organism-based; conditions: Streptococcus sp. 'group A'
HEK293 [12] = test: cells; assay type: functional, cell-based; conditions: Homo sapiens
HEK293 [13] = test: cells; assay type: functional, cell-based; conditions: Homo sapiens; remark: listed apart in the source
[14] = target: Nucleotide-binding oligomerization domain-containing protein 2 (Homo sapiens, UniProt Q9HC29); test: inhibition of NOD2-driven NF-kB reporter – cell-based, luminescence, uHTS, HEK293 (AID 1566); assay type: functional
Nucleotide-binding oligomerization domain-containing protein 2, sequence (Q9HC29 whole entry, the tested form may be a part): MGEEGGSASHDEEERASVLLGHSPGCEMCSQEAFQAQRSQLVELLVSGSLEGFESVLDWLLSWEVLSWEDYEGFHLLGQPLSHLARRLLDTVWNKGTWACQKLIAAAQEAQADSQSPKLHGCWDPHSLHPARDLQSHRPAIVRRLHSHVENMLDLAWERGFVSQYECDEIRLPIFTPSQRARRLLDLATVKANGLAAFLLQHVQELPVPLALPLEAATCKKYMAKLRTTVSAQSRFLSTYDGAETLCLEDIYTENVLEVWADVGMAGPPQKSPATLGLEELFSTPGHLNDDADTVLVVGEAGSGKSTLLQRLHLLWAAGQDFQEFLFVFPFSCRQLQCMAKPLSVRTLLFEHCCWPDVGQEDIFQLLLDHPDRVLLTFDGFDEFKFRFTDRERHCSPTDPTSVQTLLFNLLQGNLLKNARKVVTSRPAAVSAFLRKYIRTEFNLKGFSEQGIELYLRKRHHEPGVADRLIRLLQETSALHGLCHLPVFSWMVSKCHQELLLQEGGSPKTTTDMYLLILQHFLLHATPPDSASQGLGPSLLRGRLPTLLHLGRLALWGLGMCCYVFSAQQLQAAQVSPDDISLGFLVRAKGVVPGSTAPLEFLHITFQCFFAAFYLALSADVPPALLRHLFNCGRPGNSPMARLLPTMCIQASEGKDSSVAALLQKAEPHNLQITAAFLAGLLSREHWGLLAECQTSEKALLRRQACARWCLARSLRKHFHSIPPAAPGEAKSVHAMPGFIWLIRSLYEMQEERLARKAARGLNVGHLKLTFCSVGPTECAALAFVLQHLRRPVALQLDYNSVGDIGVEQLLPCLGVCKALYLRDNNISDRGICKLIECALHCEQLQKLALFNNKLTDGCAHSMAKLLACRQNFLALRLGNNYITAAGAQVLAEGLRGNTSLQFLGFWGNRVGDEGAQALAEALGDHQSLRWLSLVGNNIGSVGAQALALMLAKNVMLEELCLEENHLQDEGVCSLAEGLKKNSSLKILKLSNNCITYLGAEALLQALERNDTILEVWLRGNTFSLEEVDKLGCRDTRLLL

HEK293 [15] = test: NOD2 signaling inhibitors in MDP-stimulated cells, cell-based, uHTS, luminescence (AID 2001); assay type: functional; conditions: Homo sapiens
HEK293 [16] = test: cells; assay type: functional, cell-based; conditions: Homo sapiens; remark: listed apart in the source
Streptococcus = test: GAS UMAA2166 growth inhibition – luminescence, BacTiterGlo, counter-screen for streptokinase expression inhibitor project, dose response (AID 1915); assay type: functional, organism-based; conditions: Streptococcus;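 also: potency for reduction of bacterial viability or growth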
[17] = target: T4, Apoptotic protease-activating factor 1 (Homo sapiens, UniProt O14727); assay type: functional
T4 sequence (O14727 whole entry): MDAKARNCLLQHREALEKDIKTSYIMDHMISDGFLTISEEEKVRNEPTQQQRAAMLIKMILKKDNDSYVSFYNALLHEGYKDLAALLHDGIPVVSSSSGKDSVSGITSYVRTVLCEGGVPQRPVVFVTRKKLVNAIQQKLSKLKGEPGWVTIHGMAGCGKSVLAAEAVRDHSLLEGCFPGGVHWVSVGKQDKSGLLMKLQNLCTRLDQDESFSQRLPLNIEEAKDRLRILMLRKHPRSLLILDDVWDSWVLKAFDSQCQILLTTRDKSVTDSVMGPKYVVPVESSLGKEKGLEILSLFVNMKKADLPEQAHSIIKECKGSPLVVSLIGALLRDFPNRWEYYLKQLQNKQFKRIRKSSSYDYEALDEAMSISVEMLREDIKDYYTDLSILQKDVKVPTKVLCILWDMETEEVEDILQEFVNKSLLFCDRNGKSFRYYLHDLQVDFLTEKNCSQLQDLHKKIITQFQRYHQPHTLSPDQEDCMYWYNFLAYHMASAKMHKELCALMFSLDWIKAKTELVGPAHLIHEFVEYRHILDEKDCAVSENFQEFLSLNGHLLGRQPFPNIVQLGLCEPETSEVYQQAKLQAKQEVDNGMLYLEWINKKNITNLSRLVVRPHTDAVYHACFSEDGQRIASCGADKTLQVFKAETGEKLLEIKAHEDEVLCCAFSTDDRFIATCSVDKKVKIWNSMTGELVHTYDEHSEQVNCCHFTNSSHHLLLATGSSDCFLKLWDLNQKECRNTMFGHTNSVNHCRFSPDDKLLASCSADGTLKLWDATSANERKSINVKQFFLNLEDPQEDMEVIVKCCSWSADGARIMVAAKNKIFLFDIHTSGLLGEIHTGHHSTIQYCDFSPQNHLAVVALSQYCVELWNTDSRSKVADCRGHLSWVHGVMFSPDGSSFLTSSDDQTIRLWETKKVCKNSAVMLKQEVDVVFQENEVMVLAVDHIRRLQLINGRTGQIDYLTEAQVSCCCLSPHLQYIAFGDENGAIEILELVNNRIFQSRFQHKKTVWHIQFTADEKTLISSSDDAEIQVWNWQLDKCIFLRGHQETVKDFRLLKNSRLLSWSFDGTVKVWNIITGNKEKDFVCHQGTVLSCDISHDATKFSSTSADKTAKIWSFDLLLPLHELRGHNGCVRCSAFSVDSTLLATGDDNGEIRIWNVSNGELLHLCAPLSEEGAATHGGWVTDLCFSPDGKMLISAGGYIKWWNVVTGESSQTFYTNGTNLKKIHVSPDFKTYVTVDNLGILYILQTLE

INS1 = test: INS-1E survival protection against cytokine death – cell-based, luminescence, retest, dose response (AID 449756); assay type: functional; conditions: Rattus norvegicus;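 also: cell death triggered by IL-1 beta plus TNF-alpha plus IFN-gamma mixture; protective hits raise ATP signal compared with cytokine alone wells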
[18] = target: Alkaline phosphatase, placental type (Homo sapiens, UniProt P05187); test: human placental alkaline phosphatase inhibition – biochemical, luminescence, confirmation (AID 1512); assay type: functional
Alkaline phosphatase, placental type, sequence (P05187 whole entry): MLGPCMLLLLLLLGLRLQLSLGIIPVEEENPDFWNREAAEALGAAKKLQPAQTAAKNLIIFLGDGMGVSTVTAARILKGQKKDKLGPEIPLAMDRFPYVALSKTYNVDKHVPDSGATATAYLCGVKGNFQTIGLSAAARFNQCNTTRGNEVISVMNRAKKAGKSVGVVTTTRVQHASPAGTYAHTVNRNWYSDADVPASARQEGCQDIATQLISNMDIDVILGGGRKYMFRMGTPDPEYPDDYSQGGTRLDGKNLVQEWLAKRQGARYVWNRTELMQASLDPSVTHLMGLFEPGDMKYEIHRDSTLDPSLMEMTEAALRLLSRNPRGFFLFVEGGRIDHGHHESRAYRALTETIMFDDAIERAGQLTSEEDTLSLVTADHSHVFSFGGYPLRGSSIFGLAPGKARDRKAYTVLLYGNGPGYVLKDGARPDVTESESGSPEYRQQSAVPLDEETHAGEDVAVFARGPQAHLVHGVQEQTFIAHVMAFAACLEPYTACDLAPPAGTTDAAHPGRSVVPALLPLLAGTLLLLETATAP

[19] = target: T5, Alkaline phosphatase, tissue-nonspecific isozyme (Homo sapiens, UniProt P05186); test: potency against alkaline phosphatase TNAP – biochemical, luminescent, dose response, SAR follow-up (AID 1056)
T5 sequence (P05186 whole entry): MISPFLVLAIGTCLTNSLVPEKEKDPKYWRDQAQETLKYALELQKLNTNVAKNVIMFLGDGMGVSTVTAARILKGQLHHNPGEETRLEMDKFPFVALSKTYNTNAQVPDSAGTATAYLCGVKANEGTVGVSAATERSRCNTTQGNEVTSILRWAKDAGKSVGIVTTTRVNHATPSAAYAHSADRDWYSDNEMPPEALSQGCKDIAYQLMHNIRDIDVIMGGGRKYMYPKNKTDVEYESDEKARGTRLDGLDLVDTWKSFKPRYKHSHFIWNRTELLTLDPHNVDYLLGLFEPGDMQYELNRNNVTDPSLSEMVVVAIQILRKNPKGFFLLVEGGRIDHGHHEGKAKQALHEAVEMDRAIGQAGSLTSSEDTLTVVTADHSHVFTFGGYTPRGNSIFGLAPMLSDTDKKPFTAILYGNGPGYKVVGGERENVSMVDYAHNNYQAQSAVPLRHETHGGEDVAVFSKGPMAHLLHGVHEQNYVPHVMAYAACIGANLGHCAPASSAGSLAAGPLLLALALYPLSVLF

[20] = viability of uninfected HEp-2 cells – cell-based, HTS, cytotoxicity control for RSV inhibitor project, dose response (AID 2410); assay type: functional; conditions: human respiratory syncytial virus
Saccharomyces cerevisiae = test: S. cerevisiae Caspase-1/ASC signal blockers IC50, NALP1 inhibitor project selectivity test (AID 488863); assay type: functional, organism-based
[21] = target: NACHT, LRR and PYD domains-containing protein 1 (Homo sapiens, UniProt Q9C000); test: NALP1 inhibitors in yeast, dose response, luminescent (AID 488860); assay type: functional

NC(=O)[C@H](Cc1ccccc1)n1c(=O)[nH]c(=O)n(-c2ccc(Cl)cc2)c1=O
IC50 [1]: > 100 µM (not active) | IC50 [2]: > 100 µM (not active) | IC50 [3]: > 100 µM (inactive) | IC50 [4]: > 100 µM (inactive)

O=C1C=CC(=O)N1Nc1c(Cl)cc(Cl)cc1Cl
Ki [5]: 33.7 µM (inactive)

CCOC(=O)COc1ccc(/C=C/[N+](=O)[O-])c(OCC(=O)OCC)c1
EC50 [6]: 3.89 µM (active) | EC50 [7]: 6.52 µM (inconclusive) | AC50 (Cytochrome P450 3A4): 11.2 µM (inconclusive)

O=C(NCCc1ccccc1)c1ccc2nc(-c3ccco3)c(-c3ccco3)nc2c1
IC50 (Estrogen receptor beta): 2.59 µM (not active) | IC50 (Ephrin type-A receptor 4): 21.3 µM (active) | IC50 [8]: 3.16 µM (active) | IC50 [9]: 1.05 µM (active) | IC50 (Genome polyprotein): 59.1 µM (active)

Cc1[nH]n(-c2ccccc2)c(=O)c1/C=N/NC(=O)c1cccc(F)c1
EC50 (HEK293 [10]): 8.44 µM (active) | EC50 [11]: 4.31 µM (active) | IC50 (HEK293 [12]): > 20 µM (inactive) | IC50 (HEK293 [13]): > 20 µM (inactive) | EC50 [14]: > 20 µM (inactive) | IC50 (HEK293 [15]): > 20 µM (inactive) | IC50 (HEK293 [16]): > 20 µM (inactive) | EC50 (Streptococcus): 7.25 µM (active) | IC50 [17]: 7.78 µM (active) | AC50 (INS1): 2.03 µM (active)

O=C1C2CC=CCC2C(=O)N1c1n[nH]c(-c2ccccc2)n1 (centres undefined)
IC50 [2]: > 100 µM (not active) | IC50 [18]: 4 µM (active) | IC50 [19]: 0.308 µM (active)

COc1ccccc1-c1nc(SCc2cccc(Br)c2)n[nH]1
IC50 [2]: > 100 µM (not active) | IC50 [18]: > 100 µM (inactive) | IC50 [19]: > 100 µM (inactive)

COC(=O)C(=Cc1ccc(OCc2ccc([N+](=O)[O-])cc2)c(OC)c1)C(=O)OC
CC50 [20]: 6.91 µM (active) | EC50 (HEK293 [10]): > 20 µM (inactive) | IC50 (HEK293 [12]): 4.31 µM (active) | IC50 (HEK293 [13]): > 20 µM (inactive) | IC50 (HEK293 [15]): 8.46 µM (active) | EC50 [6]: 5.98 µM (active)

COc1ccccc1N1C(=O)C2CCC(c3ccccc3)CC2C1=O (centres undefined)
IC50 (Saccharomyces cerevisiae): > 100 µM (inactive) | IC50 [21]: > 100 µM (inactive)

Nc1ncnc(Nc2ccccn2)c1[N+](=O)[O-]
EC50 (HEK293 [10]): 17.8 µM (active) | IC50 (HEK293 [12]): 7.86 µM (active) | IC50 (HEK293 [13]): > 20 µM (inactive) | EC50 [14]: 18.8 µM (active) | IC50 (HEK293 [15]): 17.6 µM (inactive) | IC50 (HEK293 [16]): > 20 µM (inactive)

c1ccc2c(CNC34CC5CC(CC(C5)C3)C4)c[nH]c2c1
Ki [5]: 32.9 µM (inactive)
